The values that follow come from patent US12503711B2, “Method of producing and processing diamines to a diamine free base using a carbonate intermediate and an engineered microorganism” (Genomatica, Inc., priority 2014, dated 2025).

For data set [1] the following is noted: water solubility of the solvent used, cited from earlier work.
A short description of data set [2]: Solvent extraction of HMD from aqueous feed (recovery, distribution coefficient, selectivity). In kind it is physicochemical. Conditions: for available free base HMD extracted: 1:1 solvent to feed ratio. Here is the method: The example describes the solvent extraction of HMD from the CO2 stripped solution prepared in Example 3 above as well as extracting HMD from an aqueous solution without pH adjustment as a control for solvent performance. The following protocol was used in this example:
The pH of the aqueous feed was measured. In a 50 mL falcon tube, 20 g of solvent was mixed with 20 g of feed. This combination was further aggressively mixed in the falcon tube for 5 minutes and vortexed for 1 minute. The tube with the mixed solvent and feed was allowed to settle until phase separation was complete. The volume of the bottom, aqueous layer was recorded. A sample of the top layer was carefully pipetted out the top layer. A sample the bottom layer was also obtained and the pH of the bottom layer measured. The recovery, distribution coefficients and selectivity based on mass balance were calculated.
The extraction data for three solvents extracting HMD from water are set out in Table 4-1.

A short description of data set [3]: HMD/CO2 pH equilibrium under changing conditions (CO2 sparge, air sparge, heat). The data set is classed as physicochemical. Conditions: for pH (temp. in ° C.): 10% w/w aqueous HMD solution. Here is the method:
This experiment illustrates HMD/CO2 pH equilibrium under changing conditions. In this example, a 10% w/w aqueous HMD solution was prepared (70% HMD purchased from Sigma Aldrich). The HMD solution was heated to 30° C. and initial pH recorded. Next, CO2 (approximately 98% pure) was bubbled into the solution for 60 min while monitoring pH. The CO2 sparge was stopped. Air was sparged into solution for 30 min while monitoring pH. […] The pH was measured by sampling 3 mL to a falcon tube and cooling to 30° C. […] The solution was cooled to 30° C. and a final pH recorded. The measured pH values are plotted in Graphs 1-1, 1-2 and 1-3, below. It was noted that the temperature probe on pH meter was reading 44.4° C. at […]. and cooled back down to 30° C. by the end of the 60 min. […] This temperature increase can also account for the nonlinearity in FIG. 27-29 because pH decreases with increasing temperature.
Extraction should be possible at this pH. Aeration during fermentation may be able to strip off some of the dissolved CO2.

Data set [4] is described as follows: Regeneration of HMD free base from CO2-adjusted MM9 solution by air sparge and reflux. In kind it is physicochemical. Conditions: for CO2:HMD ratio: based on calculation from pH. How it is done: A 250 mL four-neck flask was fitted with a condenser, temperature probe, and air sparge needle. The system was open to air through the top of the condenser. The feed was an aqueous HMD solution in MM9 where pH was adjusted to 8.68 with CO2. The feed solution was analyzed for HMD concentration by LCMS and the pH was measured. The solution was sparged with air and refluxed at 85° C. for three hours. The resulting solution's pH was taken and the concentration of HMD measured by LCMS.
The concentration increased slightly as some water escaped through the condenser and the solution was concentrated. The fraction of HMD in free base form at pH 11.26 is 57%.

A short description of data set [5]: Simulated fermentation: CO2 and HMD fed into MM9 solution, pH monitored. In kind it is physicochemical. Conditions: average rate 3.31 g/L/hr. The source says: This example reports the results of a simulated fermentation process. Briefly, CO2 (approximately 98% pure) and HMD (70% HMD from Sigma Aldrich) were fed into an MM9 solution that had the following composition: • 0.68% (6.8 g/L) Disodium phosphate Na2HPO4 • 0.3% (3 g/L) Monopotassium phosphate KH2PO4 • 0.15%(1.5 g/L) Ammonium chloride NH4Cl • 0.1% (1 g/L) Ammonium sulfate (NH4)2SO4 • 0.05% (0.5 g/L) Sodium chloride NaCl
The measured pH of the solution and concentration of HMD added over time are set out in FIG. 30.
This feed rate used in this example corresponds to an average rate of 3.31 g/L/hr (a reasonable production rate in an industrial fermentation process). The final titer and feed concentration of HMD was confirmed by LCMS. The HMD and CO2 reach a dynamic equilibrium around pH 8.5. As more HMD is added, more CO2 is absorbed. The simulated HMD:CO2 ratio is 1.95 for pH=8.53. […] FIGS. 31 and 32 illustrate the relative concentration of species as a function of pH for HMD and H2CO3, respectively.
At pH 8.5 (dashed, black line) the major species in solution are the diprotonated HMD and bicarbonate. A minority presence of HMD-carbamate may be present as well.

Setting [6] is: HMD in DI water, [HMD] = 835 mM, 20 g solvent : 20 g feed.
[7] abbreviates: HMD in DI water, [HMD] = 835 mM, bottom aqueous layer after extraction, 20 g solvent : 20 g feed.
[8] abbreviates: HMD in deionized (DI) water, [HMD] = 835 mM, aqueous feed before extraction.

Values joined by “and” are separate entries in the source; they are usually repeats but may differ in a detail not shown here. Equal values may be shown once. Read-outs that look alike come from different tables or passages of the source.

For the compound `CCCCCCO` [1-hexanol], the “% Solubility” value in data set [1] (Table 4-1) and in data set [1] (Table 4-2) was 0.59% in each case.

As for `OC1CCCCC1` [Cyclohexanol], the “% water in extract” value in data set [2] (setting [6]) came out at 16.65%. Besides, in data set [2] (setting [7]), the pH after came to 12.36. Besides, in data set [2] (setting [8]), the pH before was 12.70.

For `NCCCCCCN` [HMD, Hexamethylenediamine], the “pH restored by air and heat” value in data set [3] (10% w/w aqueous HMD solution after 60 min CO2 bubbling, then air sparge and heating to 80-88° C, pH read at 30° C) came to 11.02. Besides, the “pH (temp. in ° C.)” value in data set [3] (Heated to 80° C. for 30 min. w/ sparge, sample cooled to 30 °C) is 10.49; in data set [3] (Heated to 88° C. for 15 min. w/ sparge, pH at 22.5 °C), 11.02; in data set [3] (Heated to 88° C. for 15 min. w/ sparge, pH at 30 °C), 10.76; in data set [3] (House air sparge for 30 min. at 30° C., pH at 30 °C), 8.23; in data set [3] (Initial conditions, pH at 30 °C), 12.25; in data set [3] (Sat open to air over night, pH at 20.6 °C), 10.78. In data set [3] (Sparge CO2 for 60 min. at 30° C., pH at 30 °C), the “pH (temp. in ° C.)” value amounted to 7.96. The pH in data set [4] (Feed stream: HMD in MM9, pH adjusted with CO2, @ 21.7° C.) is listed as 8.68 @; in data set [4] (Product stream after air sparge and reflux at 85° C. for three hours, @ 23.5° C.), 11.26 @. For the same compound, the “CO2:HMD ratio” value is recorded as 1.91 in data set [4] (Feed stream) and 0.277 in data set [4] (Product stream). For the same compound, the “fraction of HMD in free base form” value in data set [4] (at pH 11.26) stood at 57%. In data set [4] (feed pH 8.68 in MM9, air sparge, reflux at 85° C for three hours), the “pH after CO2 stripping” value was determined as 11.26. Further, the figures for the “available free base HMD extracted” value in data set [2] (solvent 1-hexanol) and in data set [2] (solvent hexane) were “approximately 43%” and “about 7%”, respectively. In data set [2] (stripped solution from Example 3), the “free base HMD available, based on the pH before extraction” value is 60%. Also, the “pH of dynamic equilibrium of HMD and CO2” value in data set [5] is on record as roughly 8.5.

Turning to `CCCCCC` [Hexane], the “% Solubility” value in data set [1] (Table 4-1) is listed as 9.4 × 10^−4%. In addition, in data set [2], the “% water in extract” value is less than 0.001%; the pH after is 12.54 and 11.42; the pH before was 12.55 and 11.48.

In the case of `CC(C)CCO` [Isopentanol], in data set [1] (Table 4-1), the “% Solubility” value was 2.8%. For the same compound, in data set [2] (setting [6]), the “% water in extract” value is 9.08%. In addition, in data set [2] (setting [7]), the pH after is reported as 12.16. Moreover, the pH before in data set [2] (setting [8]) is listed as 12.70.
